The source of these data is patent publication US20240383922A1, “KRAS Modulating Compounds” (Gilead Sciences, Inc., priority 2023, published 2024).

Molecules are shown by their SMILES. Read-outs that look alike come from different tables or passages of the source.

The subject of assay [1] is cellular pERK in NCI-H441 (KRAS-G12V) cell-line. The experiment in a line: Cell based pERK assay (HTRF), NCI-H441. To be noted: NCI-H441 (KRAS-G12V) cells, 2 hours incubation. Put shortly:
(§1)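 Following overnight attachment, cells received compound in a three-fold dilution series for 2 hours at 37 °C. Medium was then removed and combined lysis and phospho-ERK detection reagent was added for overnight incubation at room temperature before time-resolved FRET reading.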
For orientation: TR-FRET usually uses a lanthanide donor and a delayed reading to cut background.

The target in assay [2] is GDP-loaded wild-type KRAS (WT) (Homo sapiens (Human), UniProt P01116). As to the kind of experiment: KRAS (GDP) biochemical TR-FRET probe displacement assay, WT KRAS. It is filed as binding. To be noted: 2 hours. On the procedure: (§2) KRAS (GDP) Biochemical Assays:
(§3) Compounds were serially diluted (1:3) in DMSO. The LabCyte ECHO Acoustic dispenser was used to pre-spot the assay plates (384-well Non-Binding Surface plates, Corning, Catalog #3824) with 50 nL of compound. 5 μL of 2× enzyme concentration was added to the pre-spotted plates and incubated for 30 minutes before adding 5 μL of 2× concentration of Eu-streptavidin and Cy-5 labelled probe (10 μL final reaction volume). The plates were incubated at room temperature for 2 hours before measuring TR-FRET ratio (665 nm/615 nm) on the Envision multimode plate reader. The ratios were normalized to a positive (saturating concentration of known inhibitor) and negative (DMSO) control and plotted against the log of compound concentration.

Assay [3] deals with cellular pERK in ASPC-1 (KRAS G12D) cell-line. As to the kind of experiment: Cell based pERK assay (HTRF), ASPC-1. Conditions: ASPC-1 (KRAS G12D) cells, 2 hours incubation. The method, boiled down: as §1
The target in a further assay is GDP-loaded KRAS-G12V (Homo sapiens (Human), UniProt P01116, G12V). As to the kind of experiment: KRAS (GDP) biochemical TR-FRET probe displacement assay, KRAS-G12V. It is filed as binding. Conditions: 2 hours. On the procedure:
as §2, §3

In assay [4] the test system is cellular pERK in Kuramochi (WT KRAS) cell-line. The experiment in a line: Cell based pERK assay (HTRF), Kuramochi. To be noted: Kuramochi (WT KRAS) cells, 2 hours incubation. Put shortly: as §1
The target of a further assay is GDP-loaded KRAS-G12D (Homo sapiens (Human), UniProt P01116, G12D). As to the kind of experiment: KRAS (GDP) biochemical TR-FRET probe displacement assay, KRAS-G12D. Conditions: 2 hours. The format is binding. On the procedure:
as §2, §3

The target of the next assay is GDP-loaded KRAS-G12C (Homo sapiens (Human), UniProt P01116, G12C). The experiment in a line: KRAS (GDP) biochemical TR-FRET probe displacement assay, KRAS-G12C. Conditions: 2 hours. The format is binding. As for the experimental part: as §2, §3
Assay [5] relates to cellular pERK in MIA-PaCa-2 (KRAS-G12C) cell-line. The experiment in a line: Cell based pERK assay (HTRF), MIA-PaCa-2. To be noted: MIA-PaCa-2 (KRAS-G12C) cells, 2 hours incubation, read-out: MIAPaCa2 pERK EC50. Put shortly:
as §1

Sequence of GDP-loaded KRAS-G12D (P01116-2 other isoform, or with tags, fused parts or gaps G12D): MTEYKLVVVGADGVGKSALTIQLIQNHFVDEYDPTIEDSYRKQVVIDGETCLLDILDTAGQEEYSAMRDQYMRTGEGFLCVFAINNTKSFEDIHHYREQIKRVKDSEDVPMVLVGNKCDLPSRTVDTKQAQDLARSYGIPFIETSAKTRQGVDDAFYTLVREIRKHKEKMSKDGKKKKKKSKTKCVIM
Sequence of GDP-loaded KRAS-G12V (P01116-2 other isoform, or with tags, fused parts or gaps G12V): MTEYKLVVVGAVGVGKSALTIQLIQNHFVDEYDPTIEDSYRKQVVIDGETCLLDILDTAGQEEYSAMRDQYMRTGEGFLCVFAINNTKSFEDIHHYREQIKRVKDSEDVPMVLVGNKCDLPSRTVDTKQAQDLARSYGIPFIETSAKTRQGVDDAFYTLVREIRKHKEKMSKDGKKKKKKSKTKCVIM
Sequence of GDP-loaded wild-type KRAS (WT) (P01116-2 other isoform, or with tags, fused parts or gaps): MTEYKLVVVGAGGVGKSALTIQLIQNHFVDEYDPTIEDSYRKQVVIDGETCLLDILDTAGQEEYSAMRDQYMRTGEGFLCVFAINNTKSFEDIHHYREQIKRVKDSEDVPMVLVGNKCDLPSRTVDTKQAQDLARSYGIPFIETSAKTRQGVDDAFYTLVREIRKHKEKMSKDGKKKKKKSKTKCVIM
Sequence of GDP-loaded KRAS-G12C (P01116-2 other isoform, or with tags, fused parts or gaps G12C): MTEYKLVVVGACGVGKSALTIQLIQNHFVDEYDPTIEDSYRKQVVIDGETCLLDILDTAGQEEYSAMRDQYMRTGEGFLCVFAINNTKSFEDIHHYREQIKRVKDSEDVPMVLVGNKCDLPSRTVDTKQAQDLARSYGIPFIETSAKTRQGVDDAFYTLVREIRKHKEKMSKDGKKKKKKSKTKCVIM

The term EC50 denotes the concentration giving half of the maximal effect. What is called IC50 is the concentration needed to halve the response being measured. Low readings indicate higher potency, high ones lower potency. With `C#Cc1c(F)ccc2cc(O)cc(-c3nc4c5c(nc(OC[C@@]67CCCN6C[C@H](F)C7)nc5c3F)N3CCOCCC3CC4)c12` (mixture of isomers) [Example 6-13], the EC50 worked out at 2.14 nM in assay [1] (Homo sapiens); 11.7 nM in assay [3] (Homo sapiens, ASPC1); 1.59 nM in assay [4]; 0.23 nM in assay [5] (Homo sapiens). For the same molecule, the IC50 is 0.06 nM in assay [2], 0.1 nM on GDP-loaded KRAS-G12V, 0.15 nM at GDP-loaded KRAS-G12D and 0.06 nM at GDP-loaded KRAS-G12C.
With `C#Cc1c(F)ccc2cc(O)cc(-c3c(F)c4c5c(nc(OC[C@@]67CCCN6C[C@H](F)C7)nc5c3F)N3CCCOC[C@@H]3CC4)c12` (mixture of isomers) [Example 6-21], the EC50 in assay [1] (Homo sapiens) was found to be 1.78 nM; in assay [3] (Homo sapiens, ASPC1) it was 3.12 nM; in assay [4], 5.94 nM; in assay [5] (Homo sapiens) it was 1.08 nM. The IC50 was 0.88 nM in assay [2], 0.4 nM on GDP-loaded KRAS-G12V, 0.87 nM at GDP-loaded KRAS-G12D and 0.54 nM on GDP-loaded KRAS-G12C.
In the case of `C#Cc1c(F)ccc2cc(O)cc(-c3nc4c5c(nc(OC[C@@]67CCCN6C[C@H](F)C7)nc5c3F)N3CCCCC3CCn3nncc3-4)c12` (mixture of isomers) [Example 11-1, 5-ethynyl-6-fluoro-4-(1-fluoro-14-(((2R,7aS)-2-fluorotetrahydro-1H-pyrrolizin-7a(5H)-yl)methoxy)-8,8a,9,10,11,12-hexahydro-7H-3,5,6,6a,12a,13,15-heptaazabenzo[4,5]cyclopenta[8,9]cyclonona[1,2,3-de]naphthalen-2-yl)naphthalen-2-ol], the 50% effective concentration (EC50) in assay [1], in assay [3] (read-out: AsPC1 pERK EC50), in assay [4] and in assay [5] was > 1000 nM each time. Further, the concentration for half-maximal inhibition (IC50) (in assay [2]; at GDP-loaded KRAS-G12V; on GDP-loaded KRAS-G12D; on GDP-loaded KRAS-G12C) was > 1000 nM each time.
Regarding `Cc1cc(N)nc(-c2c(Cl)c3c4c(nc(OC[C@@]56CCCN5C[C@H](F)C6)nc4c2F)N2CCCOCC2CC3)c1C(F)(F)F` (mixture of isomers) [Example 21-1, 6-(12-chloro-10-fluoro-8-(((2R,7aS)-2-fluorotetrahydro-1H-pyrrolizin-7a(5H)-yl)methoxy)-1,4,5,13,14,14a-hexahydro-3H-[1,4]oxazepino[4′,3′:1,7]azepino[2,3,4-de]quinazolin-11-yl)-4-methyl-5-(trifluoromethyl)pyridin-2-amine], the 50% effective concentration (EC50) in assay [1] is 7240 nM; in assay [3] (read-out: AsPC1 pERK EC50), 27100 nM; in assay [4], > 956 nM; in assay [5], 4640 nM. Also, the IC50 in assay [2] was determined as 5290 nM; on GDP-loaded KRAS-G12V it was 4960 nM; on GDP-loaded KRAS-G12D, 17500 nM; on GDP-loaded KRAS-G12C, 1440 nM.
For the molecule `C#Cc1c(F)ccc2cc(O)cc(-c3nc4c5c(nc(OC[C@@]67CCCN6C[C@H](F)C7)nc5c3F)N3CCOCC[C@@H]3CC4)c12` (single isomer, unassigned) [Example 9-2], the 50% effective concentration (EC50) in assay [1] (Homo sapiens) turned out to be 2.14 nM; in assay [3] (Homo sapiens, ASPC1), 11.7 nM; in assay [4], 1.59 nM; in assay [5] (Homo sapiens) it was 0.23 nM. Also, the half-maximal inhibitory concentration (IC50) in assay [2] came to 0.06 nM; at GDP-loaded KRAS-G12V, 0.1 nM; at GDP-loaded KRAS-G12D, 0.15 nM; on GDP-loaded KRAS-G12C, 0.06 nM.
Consider `C#Cc1c(F)ccc2cc(O)cc(-c3nc4c5c(nc(OC[C@@]67CCCN6[C@H](COc6cc(C(F)(F)F)ncn6)CC7)nc5c3F)N3CCCOC[C@@H]3CC4)c12` [Example 6-12], for which the EC50 is 0.73 nM in assay [1] (Homo sapiens); 1.53 nM in assay [3] (Homo sapiens, ASPC1); 1.34 nM in assay [4]; 0.149 nM in assay [5] (Homo sapiens). Moreover, the IC50 in assay [2] amounted to 0.67 nM; at GDP-loaded KRAS-G12V, 0.22 nM; at GDP-loaded KRAS-G12D it was 0.47 nM; at GDP-loaded KRAS-G12C, 0.92 nM.
For the molecule `C#Cc1c(F)ccc2cc(O)cc(-c3nc4c5c(nc(OC[C@@]67CCCN6[C@H](COc6nccnc6C(F)C(C)F)CC7)nc5c3F)N3CCCOC[C@@H]3CC4)c12` (stereo partly drawn) [Example 6-14], the EC50 in assay [1] (Homo sapiens) came out at 2.07 nM; in assay [3] (Homo sapiens, ASPC1), 3.5 nM; in assay [4], 3.46 nM; in assay [5] (Homo sapiens), 0.32 nM. The IC50 was 0.05 nM in assay [2], 0.09 nM at GDP-loaded KRAS-G12V, 0.09 nM at GDP-loaded KRAS-G12D and 0.08 nM at GDP-loaded KRAS-G12C.
Regarding `C#Cc1c(F)ccc2cccc(-c3nc4c5c(nc(OC[C@@]67CCCN6[C@H](COc6cc(C(F)(F)F)ncn6)CC7)nc5c3F)N3CCCOC[C@@H]3CC4)c12` [Example 6-15], the EC50 in assay [1] (Homo sapiens) was > 749 nM; in assay [3] (Homo sapiens, ASPC1) it was > 859 nM; in assay [4], 231 nM; in assay [5] (Homo sapiens), 403 nM. The 50% inhibitory concentration (IC50) in assay [2] is 67.9 nM; on GDP-loaded KRAS-G12V it was 29.2 nM; at GDP-loaded KRAS-G12D, 38.5 nM; at GDP-loaded KRAS-G12C, 36.6 nM.
`C#Cc1c(F)ccc2cc(O)cc(-c3nc4c5c(nc(OC[C@@]67CCCN6C/C(=C\F)C7)nc5c3F)N3CCCOC[C@@H]3CC4)c12` [Example 6-23]: the EC50 in assay [1] (Homo sapiens) was 0.2 nM; in assay [3] (Homo sapiens, ASPC1) it was 0.44 nM; in assay [4], 1.14 nM; in assay [5] (Homo sapiens), 0.06 nM. Also, the IC50 in assay [2] is 0.06 nM; at GDP-loaded KRAS-G12V, 0.05 nM; on GDP-loaded KRAS-G12D, 0.04 nM; at GDP-loaded KRAS-G12C it was 0.05 nM.
For `C#Cc1c(F)ccc2cc(O)cc(C3=C(F)C4N=C(OC[C@@]56CCCN5C[C@H](F)C6)N=C5C4C(=C3F)C(C)=C[C@H]3COCCCN53)c12` (stereo partly drawn) [Example 6-28], the EC50 was 7.98 nM in assay [1] (Homo sapiens); 17.1 nM in assay [3] (Homo sapiens, ASPC1); 11.7 nM in assay [4]; 2.34 nM in assay [5] (Homo sapiens). Also, the IC50 is 3.43 nM in assay [2], 2.69 nM at GDP-loaded KRAS-G12V, 2.82 nM at GDP-loaded KRAS-G12D and 2.53 nM at GDP-loaded KRAS-G12C.
Consider `C#Cc1c(F)ccc2cc(N)cc(-c3nc4c5c(nc(OC[C@@]67CCCN6C[C@H](F)C7)nc5c3F)N3CCCOC[C@@H]3CC4)c12` [Example 7-1, 5-ethynyl-6-fluoro-4-((S)-1-fluoro-12-(((2R,7aS)-2-fluorotetrahydro-1H-pyrrolizin-7a(5H)-yl)methoxy)-4,5,5a,6,9,10-hexahydro-8H-7-oxa-3,10a,11,13-tetraazanaphtho[1,8-ab]heptalen-2-yl) naphthalen-2-amine], for which the EC50 in assay [1] (Homo sapiens) was found to be 4.46 nM; in assay [3] (Homo sapiens, ASPC1) it was 17.9 nM; in assay [4] it was 2.09 nM; in assay [5] (Homo sapiens) it was 4.12 nM. Moreover, the IC50 in assay [2] turned out to be 3.87 nM; at GDP-loaded KRAS-G12V it was 1.78 nM; at GDP-loaded KRAS-G12D it was 2.73 nM; at GDP-loaded KRAS-G12C, 0.9 nM.
Regarding `C#Cc1c(F)ccc2cc(N)cc(-c3nc4c5c(nc(OC[C@@]67CCCN6[C@H](COc6cc(C(F)(F)F)ncn6)CC7)nc5c3F)N3CCCOC[C@@H]3CC4)c12` [Example 7-4], the 50% effective concentration (EC50) was 8.95 nM in assay [1] (Homo sapiens); 26.3 nM in assay [3] (Homo sapiens, ASPC1); 4.47 nM in assay [4]; 9.04 nM in assay [5] (Homo sapiens). The IC50 in assay [2] worked out at 2.26 nM; at GDP-loaded KRAS-G12V it was 2.01 nM; on GDP-loaded KRAS-G12D, 4.5 nM; at GDP-loaded KRAS-G12C, 1.02 nM.
As for `C#Cc1c(F)ccc2cc(N)cc(-c3nc4c5c(nc(OC[C@@]67CCCN6[C@H](COc6cc(C(F)(F)F)cnn6)CC7)nc5c3F)N3CCCOC[C@@H]3CC4)c12` [Example 7-5], the 50% effective concentration (EC50) in assay [1] (Homo sapiens) worked out at 3.48 nM; in assay [3] (Homo sapiens, ASPC1) it was 21.2 nM; in assay [4], 1.4 nM; in assay [5] (Homo sapiens), 1.34 nM. Besides, the IC50 is 1.8 nM in assay [2], 0.65 nM on GDP-loaded KRAS-G12V, 1.76 nM on GDP-loaded KRAS-G12D and 0.55 nM on GDP-loaded KRAS-G12C.
`C#Cc1c(F)ccc2cccc(-c3nc4c5c(nc(OC[C@@]67CCCN6[C@H](COC(=O)N(CC)CC)CC7)nc5c3F)N3CCCOC[C@@H]3CC4)c12` [Example 16-1, ((3S,7aS)-7a-((((S)-2-(8-ethynyl-7-fluoronaphthalen-1-yl)-1-fluoro-4,5,5a,6,9,10-hexahydro-8H-7-oxa-3,10a,11,13-tetraazanaphtho[1,8-ab]heptalen-12-yl)oxy)methyl)hexahydro-1H-pyrrolizin-3-yl)methyl diethylcarbamate]: the EC50 in assay [1] (Homo sapiens) came to 543 nM; in assay [3] (Homo sapiens, ASPC1), 647 nM; in assay [4], 242 nM; in assay [5] (Homo sapiens), 231 nM. Further, the IC50 amounted to 30.9 nM on GDP-loaded KRAS-G12V, 42.3 nM on GDP-loaded KRAS-G12D and 33.1 nM on GDP-loaded KRAS-G12C.
